Measurements reported in article PMC8944987, “In Vivo Efficacy of SQ109 against Leishmania donovani, Trypanosoma spp. and Toxoplasma gondii and In Vitro Activity of SQ109 Metabolites” (Biomedicines, 2022).
Like-named read-outs stand apart in the source and are kept apart here.

Key:
[1] = system: intracellular T. cruzi Dm28c amastigotes in U2OS; experiment: T. cruzi intracellular amastigotes assay in U2OS (image based); assay type: cell-based; settings: Trypanosoma cruzi; for EC50: read-out: T. cruzi Dm28c EC50 (AMA)
Method: (§1) U2OS human osteosarcoma cells were maintained in DMEM supplemented with high glucose, 10% FBS, and 1% P/S at 37 °C with 5% CO2 in air. […] Cell images were acquired by an automated image analyzer (Operetta, Perkin Elmer Technology, Waltham, MA, USA); analysis included at least 1000 cells in five fields per well. For the imaging of infected cells and parasites, Draq-5 was observed under a 20× air objective. An image analysis algorithm (Columbus, Perkin Elmer Technology) was used to detect the Draq-5 signal in the nuclei of cells and parasites as described in a previous article and shown in Supplementary Figure S1 [20]. The number of parasites was defined by the value of the number of parasites in infected cells of the acquired image.

[2] = Host cell toxicity in the T. cruzi amastigote assay; assay type: cell-based; settings: human, amastigote host cells; read-out: T. cruzi Dm28c CC50 (U2OS)
Method: as §1

[3] = system: T. cruzi Dm28c epimastigotes; experiment: T. cruzi epimastigotes assay (resazurin); assay type: cell-based; settings: Trypanosoma cruzi, read-out: T. cruzi Dm28c EC50 (EPI)
Method: The exponential growth phase of epimastigotes were treated with different concentrations of drugs or 0.1% DMSO as negative control and incubated for 3 days at 28 °C. The viability of parasites was quantified with resazurin as described in the T. brucei assay.

[4] = system: T. b. brucei Lister strain 427 bloodstream form (BSF); experiment: In vitro activity assay for T. brucei (resazurin growth inhibition); assay type: cell-based; settings: Trypanosoma brucei
[5] = system: L. donovani promastigotes; experiment: L. donovani promastigotes assay (resazurin); assay type: cell-based; settings: for EC50: read-out: L. donovani EC50 (PRO)
T. cruzi = system: T. cruzi; set-up: method as in earlier work; settings: amiodarone acting alone; reported previously; ref 5 (b3); cited from earlier work
T. cruzi Dm28c = experiment: T. cruzi acute in vivo mouse model; set-up: species or system BALB/c mice; settings: 100 mg/kg p.o.
From the text: BALB/c mice were infected with TCT of T. cruzi Dm28c (10^7 cells) by i.p. injection. Five days post-infection, infected mice were sacrificed to collect BSF of T. cruzi. BALB/c mice were intraperitoneally infected with BSF of T. cruzi Dm28c (5 × 10^4 cells). Five days post-infection, BALB/c mice were infected with previously collected 2nd-round BSF cells (3 × 10^4 cells). Mice were divided into groups (n = 10) and treated orally with drugs for 5 consecutive days for 2 weeks by starting from day 2 post-infection administration of DPBS, 100 mg/kg of benznidazole, or 100 mg/kg of SQ109 via p.o. route, respectively. Parasitemia was evaluated every 2 days for 5 weeks by blood collection from the mouse tail vein, and survival was monitored for 2 months. Mice showing impaired health status were euthanized.

[6] = system: THP-1 human monocyte cell line; experiment: Host cell toxicity in the L. donovani amastigote assay; assay type: cell-based; settings: 3 days of compound incubation; Figure 2F
Method: The THP-1 human monocyte cell line was grown in RPMI-1640 medium (Welgene, Gyeongsangbuk-do, Republic of Korea) supplemented with 10% FBS and 1% P/S. For differentiation, THP-1 cells were treated for 3 days with 50 ng/mL of PMA [20]. […] An image analysis was performed as described in the T. cruzi assay (Figure S2).

[7] = system: intracellular L. donovani amastigotes in THP-1; experiment: L. donovani intracellular amastigotes assay in THP-1 (image based); assay type: cell-based; settings: Leishmania donovani, 72 h; differentiated THP-1 host cells, 3 days of compound incubation; Figure 2F
L. donovani amastigotes = experiment: L. donovani (VL) in vivo mouse model, liver LDU; set-up: species or system BALB/c mice; settings: 30 mg/kg
Method: BALB/c mice (n = 5) were injected with 2 × 10^7 hamster spleen-derived L. donovani amastigotes via the retro-orbital venous sinus route. From day 7 post-infection, groups of mice were treated using the drug vehicle only, miltefosine (30 mg/kg), or SQ109 (30, 50, 100 mg/kg). On day 16 post-infection, all animals were humanely euthanized and assessed microscopically using Giemsa-stained liver imprints. […] The LDU values for the drug-treated samples were compared to those of the untreated samples.

[8] = bloodstream forms, read-out: T. brucei BSF EC50 (converted)
[9] = Leishmania donovani, promastigotes

SMILES | EC50 ([1]; amastigotes in U2OS) [µM] | EC50 ([3]; epimastigotes) [µM] | EC50 [5, 9] [µM] | CC50 at 3 days [2] [µM] | EC50 [4, 8] [µM] | also measured
NCCNC1C2CC3CC(C2)CC1C3 (centres unmarked) [Compound 7] | 25 | 56 | 22 | > 100 | 4.6 | –
C/C(=C\CNCCNC1C2CC3CC(C2)CC1C3)CCC(=O)C(C)C (centres unmarked) [Compound 12] | 6.9 | 45 | 0.55 | 32 | 2 | –
CC(C)=CCC/C(C)=C/C=O [Compound 13] | > 100 | > 100 | > 100 | > 100 | 2.3 | –
CC(C)=CCCC(C)=CC=NO [Compound 15a] | > 100 | > 100 | > 100 | > 100 | > 200 | –
ON=C1C2CC3CC(C2)CC1C3 [Compound 16] | > 100 | > 100 | > 100 | > 100 | > 200 | –
CC(C)=CCC/C(C)=C/CN [Compound 17] | 40 | > 100 | 21 | > 100 | 32 | –
O=C1C2CC3CC(C2)CC1C3 [Compound 19] | – | – | – | > 100 | – | EC50 ([1]; U2OS): > 100 µM; EC50 [3]: > 100 µM; EC50 ([4]; read-out: T. brucei BSF EC50): > 200 µM; EC50 ([5]; Leishmania donovani): > 100 µM
CC(C)=CCC/C(C)=C/CNCCNC1C2CC3CC1CC(C2)C3O (centres unmarked) [Compound 23] | 4.3 | 20 | 2.3 | 17 | 1.8 | –
CCCCc1oc2ccccc2c1C(=O)c1cc(I)c(OCCN(CC)CC)c(I)c1 [amiodarone] | – | – | – | – | – | survival in T. cruzi infection (T. cruzi): 40%
O=C(Cn1ccnc1[N+](=O)[O-])NCc1ccccc1 [benznidazole] | – | – | – | – | – | IC50 ([1]; 72 h, U2OS host cells, 3 days of compound incubation, Figure 2D, read-out: IC50, intracellular T. cruzi amastigote survival): 1.71 µM; survival of T. cruzi infected mice, in words (T. cruzi Dm28c; 40 days after infection): protected all the mice from death; parasitemia, in words (T. cruzi Dm28c; entire experimental period): complete suppression of parasitemia
CCCCCCCCCCCCCCCCOP(=O)([O-])OCC[N+](C)(C)C [miltefosine] | – | – | – | – | – | host cell (THP-1) toxicity, in words [6]: no host cell toxicity was observed at the highest tested dose; IC50 ([5]; Leishmania donovani, 72 h, Figure 2E, read-out: IC50, L. donovani promastigote growth): 0.171 µM; IC50 [7]: 1.51 µM; parasite burden in liver (LDU) (L. donovani amastigotes; 5 days of treatment): 142 ± 24 LDU; parasite reduction (L. donovani amastigotes; versus vehicle-treated group): 87.5%
N=C(N)c1ccc(OCCCCCOc2ccc(C(=N)N)cc2)cc1 [pentamidine, reference compound] | – | – | – | – | – | IC50 ([4]; 3 days (72 h) of compound incubation, Figure 2A, read-out: IC50, T. brucei trypomastigote viability): 0.15 µM

More lines, main results first:

EC50 ([1]; amastigotes in U2OS) [µM] | EC50 ([3]; epimastigotes) [µM] | EC50 [5, 9] [µM] | SMILES | CC50 at 3 days [2] [µM] | EC50 [4, 8] [µM] | also measured
4.9 | 28 | 2.9 | C/C(=C\CC/C(C)=C/CNCCNC1C2CC3CC(C2)CC1C3)CO (centres unmarked) [Compound 9] | 27 | 5.4 | –
> 100 | > 100 | > 100 | CC(C)=CCC/C(C)=C/C(=O)O [Compound 14] | > 100 | 13 | –
> 100 | > 100 | > 100 | CC(C)=CCCC1(C)CC=NO1 (centres unmarked) [Compound 15b] | > 100 | > 200 | –
50 | > 100 | 51 | NC1C2CC3CC(C2)CC1C3 (centres unmarked) [Compound 18] | > 100 | 71 | –
> 100 | > 100 | 6 | CC(C)=CCC/C(C)=C/CNCCN [Compound 20] | > 100 | 2.2 | –
3 | 14 | 1.27 | CC(C)=CCC/C(C)=C/CNCCNC1C2CC3CC(C2)CC1(O)C3 (centres unmarked) [Compound 21] | 6.8 | 3.2 | EC50 ([5]; promastigotes): 1.3 µM
7.5 | 23 | 3.54 | CC(C)=CCC/C(C)=C/CNCCNC1C2CC3CC1CC(O)(C3)C2 (centres unmarked) [Compound 22] | 29 | 2.9 | EC50 ([5]; promastigotes): 3.5 µM
3.2 | 14 | 1.1 | CC(C)=CCC/C(C)=C/CNCCNC1C2CC3CC(C2)C(O)C1C3 (centres unmarked) [Compound 24] | 14 | 1.8 | –
